According to PubChem BioAssay AID588639 (Sanford-Burnham Center for Chemical Genomics, 2011):
pIC50: −log10 of the molar value. Where “and” joins values, the source holds several entries; their conditions need not be identical. Identical values can stand only once. Calls of active or inactive are those of the source. How the calls were made is not given here.

Each compound was assayed against Alkaline phosphatase, tissue-nonspecific isozyme (Homo sapiens) (UniProt P05186) (assay: inhibition of tissue-nonspecific alkaline phosphatase – biochemical, set 2, selectivity assay for mouse IAP inhibitor project, SAR follow-up (AID 588639)). Details: purified human TNAP enzyme activity, counter-screen for mouse IAP.
Alkaline phosphatase, tissue-nonspecific isozyme (Homo sapiens), sequence (P05186 whole entry, looked up): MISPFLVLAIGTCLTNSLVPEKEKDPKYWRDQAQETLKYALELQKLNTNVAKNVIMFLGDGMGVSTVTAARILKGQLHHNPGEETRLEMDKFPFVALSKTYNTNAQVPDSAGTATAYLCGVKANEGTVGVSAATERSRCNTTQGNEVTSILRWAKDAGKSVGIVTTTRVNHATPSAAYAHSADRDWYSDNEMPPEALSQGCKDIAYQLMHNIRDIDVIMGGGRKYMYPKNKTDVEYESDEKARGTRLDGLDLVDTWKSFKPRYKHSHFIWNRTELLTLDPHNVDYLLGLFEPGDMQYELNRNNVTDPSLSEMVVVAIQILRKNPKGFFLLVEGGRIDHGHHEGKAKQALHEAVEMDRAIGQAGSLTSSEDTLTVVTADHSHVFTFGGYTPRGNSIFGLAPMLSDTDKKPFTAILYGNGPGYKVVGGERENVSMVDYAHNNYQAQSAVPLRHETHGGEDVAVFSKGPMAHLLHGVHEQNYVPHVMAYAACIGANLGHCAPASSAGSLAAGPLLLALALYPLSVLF

| IC50 | pIC50 | SMILES |
| --- | --- | --- |
| > 100 µM (inactive) |  | COc1ccc(CCNC(=O)CCCNS(=O)(=O)c2ccc3[nH]c(=O)oc3c2)cc1 |
| > 100 µM (inactive) |  | O=C(N/N=C/c1cc(Br)ccc1F)c1ccc(O)cc1 |
| > 100 µM (inactive) |  | C/C(=N\NC(=O)c1cc(O)c(O)c(O)c1)c1ccc(O)cc1O |
| > 100 µM (inactive) and 73.8 µM |  | COc1cccc(CNC(=O)CNS(=O)(=O)c2ccc3[nH]c(=O)oc3c2)c1 |
| > 100 µM (inactive) |  | COc1ccc(NC(=O)CCCNS(=O)(=O)c2ccc3[nH]c(=O)oc3c2)c(OC)c1 |
| > 100 µM (inactive) |  | O=C(CCNS(=O)(=O)c1ccc2[nH]c(=O)oc2c1)NCc1ccc(F)cc1 |
| > 100 µM (inactive) |  | O=C(CCCNS(=O)(=O)c1ccc2[nH]c(=O)oc2c1)NCc1ccc2c(c1)OCO2 |
| > 100 µM (inactive) |  | COc1ccccc1CNC(=O)CCCNS(=O)(=O)c1ccc2[nH]c(=O)oc2c1 |
| > 100 µM (inactive) |  | CN(C)c1ccc(CNC(=O)C2CCCN(S(=O)(=O)c3ccc4[nH]c(=O)oc4c3)C2)cc1 (stereo unspecified) |
| > 100 µM (inactive) |  | O=C(N/N=C/c1ccccc1F)c1ccccc1OCc1ccccc1 |
| > 100 µM (inactive) |  | Cc1ccc(NC(=O)CCNS(=O)(=O)c2ccc3c(c2)oc(=O)n3C)cc1 |
| > 100 µM (inactive) |  | O=C(NCc1ccccc1)C1CCCN(S(=O)(=O)c2ccc3[nH]c(=O)oc3c2)C1 (stereo unspecified) |
| > 100 µM (inactive) |  | O=C(CCS(=O)(=O)Nc1ccc2[nH]c(=O)oc2c1)NCc1cccc(Cl)c1 |
| 51.4 µM and > 100 µM (inactive) |  | O=C(CCCNS(=O)(=O)c1ccc2[nH]c(=O)oc2c1)NCc1cccc(F)c1 |
| > 100 µM (inactive) |  | CC(C)c1ccc(NC(=O)CCNS(=O)(=O)c2ccc3c(c2)oc(=O)n3C)cc1 |
| > 100 µM (inactive) |  | O=C(CCNS(=O)(=O)c1ccc2[nH]c(=O)oc2c1)NCc1cccc(C(F)(F)F)c1 |
| > 100 µM (inactive) |  | COc1ccc(CNC(=O)CCCNS(=O)(=O)c2ccc3[nH]c(=O)oc3c2)cc1OC |
| > 100 µM (inactive) |  | O=C(CCNS(=O)(=O)c1ccc2[nH]c(=O)oc2c1)NCCc1ccc(O)cc1 |
| > 100 µM (inactive) |  | O=C(CCNS(=O)(=O)c1ccc2[nH]c(=O)oc2c1)NCc1ccc2c(c1)OCO2 |
| > 100 µM (inactive) |  | COc1ccc(CNC(=O)CNS(=O)(=O)c2ccc3[nH]c(=O)oc3c2)cc1 |
| > 100 µM (inactive) |  | O=C(N/N=C/c1ccccc1F)c1ccc(O)cc1O |
| > 100 µM (inactive) |  | COc1ccc(CNC(=O)CCNS(=O)(=O)c2ccc3ccccc3c2)c(OC)c1 |
| > 100 µM (inactive) |  | O=C(N/N=C/c1ccccc1F)c1ccc(O)cc1 |
| > 100 µM (inactive) |  | O=C(N/N=C/c1ccc(F)c(Br)c1)c1cc(O)c(O)c(O)c1 |
| > 100 µM (inactive) |  | COc1ccc(C(=O)N/N=C/c2c(F)cccc2Cl)cc1OC |
| > 100 µM (inactive) |  | O=C(N/N=C/c1c(F)cccc1Cl)c1ccc(O)cc1 |
| > 100 µM (inactive) |  | O=C(N/N=C/c1ccccc1Cl)c1cc(O)c(O)c(O)c1 |
| > 100 µM (inactive) |  | O=C(CCS(=O)(=O)Nc1ccc2[nH]c(=O)oc2c1)NCc1ccccc1Cl |

Second part, the compound before the results:

| SMILES | IC50 | pIC50 |
| --- | --- | --- |
| COc1ccc(CNS(=O)(=O)c2ccc3[nH]c(=O)oc3c2)cc1 | > 100 µM (inactive) |  |
| O=C(N/N=C/c1ccc(F)cc1F)c1ccc(O)cc1 | > 100 µM (inactive) |  |
| COc1ccc(OC)c(NC(=O)CCNS(=O)(=O)c2ccc3c(c2)oc(=O)n3C)c1 | > 100 µM (inactive) |  |
| CC(C)c1ccc(/C=N/NC(=O)c2cc(O)c(O)c(O)c2)cc1 | > 100 µM (inactive) |  |
| Cc1ccc(C)c(NC(=O)CCNS(=O)(=O)c2ccc3c(c2)CCC3)c1 | > 100 µM (inactive) |  |
| COc1cc(/C=N/NC(=O)c2cc(O)c(O)c(O)c2)ccc1O | > 100 µM (inactive) |  |
| O=C(CCCNS(=O)(=O)c1ccc2[nH]c(=O)oc2c1)NCCc1ccc(O)cc1 |  | 4.13 |
| Cc1ccc(C)c(NS(=O)(=O)c2ccc3[nH]c(=O)oc3c2)c1 | > 100 µM (inactive) |  |
| COc1ccc(CNS(=O)(=O)c2ccc3[nH]c(=O)oc3c2)c(OC)c1 | > 100 µM (inactive) |  |
| CSc1cccc(NC(=O)CCNS(=O)(=O)c2ccc3c(c2)oc(=O)n3C)c1 | > 100 µM (inactive) |  |
| CC(C)Oc1ccc(CNC(=O)C2CCCN(S(=O)(=O)c3ccc4[nH]c(=O)oc4c3)C2)cc1 (stereo unspecified) | > 100 µM (inactive) |  |
| O=C(N/N=C/c1c(F)cccc1Cl)c1ccc(O)cc1O | > 100 µM (inactive) |  |
| O=C(NCc1ccc2c(c1)OCO2)C1CCCN(S(=O)(=O)c2ccc3[nH]c(=O)oc3c2)C1 (stereo unspecified) | > 100 µM (inactive) |  |
| COc1ccc(CNC(=O)CCNS(=O)(=O)c2ccc3[nH]c(=O)oc3c2)cc1 | > 100 µM (inactive) |  |
| CCc1ccc(NC(=O)CCNS(=O)(=O)c2ccc3c(c2)oc(=O)n3C)cc1 | > 100 µM (inactive) |  |
| O=C(NN=Cc1ccccc1F)c1ccc(O)cc1 | > 100 µM (inactive) |  |
| CCOc1cc(C(=O)N/N=C/c2c(F)cccc2Cl)cc(OCC)c1OCC | > 100 µM (inactive) |  |
| O=C(CCNS(=O)(=O)c1ccc2[nH]c(=O)oc2c1)NCc1cccc(Cl)c1 | > 100 µM (inactive) |  |
| O=C(N/N=C/c1ccc(Cl)c(Cl)c1)c1cc(O)c(O)c(O)c1 | > 100 µM (inactive) |  |

| SMILES | IC50 | pIC50 |
| --- | --- | --- |
| COc1ccc(CNC(=O)CCCNS(=O)(=O)c2ccc3[nH]c(=O)oc3c2)c(OC)c1 | > 100 µM (inactive) |  |
| COc1ccc(CNC(=O)C2CCCN(S(=O)(=O)c3ccc4[nH]c(=O)oc4c3)C2)cc1 (stereo unspecified) | > 100 µM (inactive) |  |
| COc1ccc(/C=N/NC(=O)c2cc(O)c(O)c(O)c2)c(OC)c1 | > 100 µM (inactive) |  |
| COc1ccc(NS(=O)(=O)c2ccc3[nH]c(=O)oc3c2)cc1OC | > 100 µM (inactive) |  |
| COc1cccc(C(=O)N/N=C/c2ccccc2F)c1 | > 100 µM (inactive) |  |
| O=C(N/N=C/c1c(Cl)cccc1Cl)c1cc(O)c(O)c(O)c1 | > 100 µM (inactive) |  |
| O=c1[nH]c2ccc(S(=O)(=O)NCc3ccc4c(c3)OCO4)cc2o1 | > 100 µM (inactive) |  |
| COc1cccc(CNS(=O)(=O)c2ccc3[nH]c(=O)oc3c2)c1 | > 100 µM (inactive) |  |
| COc1ccc(CNC(=O)CCNS(=O)(=O)c2ccc3[nH]c(=O)oc3c2)c(OC)c1 | > 100 µM (inactive) |  |
| CCOc1ccc(CNC(=O)C2CCCN(S(=O)(=O)c3ccc4[nH]c(=O)oc4c3)C2)cc1OC (stereo unspecified) | > 100 µM (inactive) |  |
| O=C(N/N=C/c1c(F)cccc1F)c1ccc(O)cc1 | > 100 µM (inactive) |  |
| Cc1ccc(CNC(=O)C2CCCN(S(=O)(=O)c3ccc4[nH]c(=O)oc4c3)C2)cc1 (stereo unspecified) | > 100 µM (inactive) |  |
| O=C(CCNS(=O)(=O)c1ccc2[nH]c(=O)oc2c1)NCCc1ccc2c(c1)OCO2 | > 100 µM (inactive) |  |
| O=c1[nH]c2ccc(S(=O)(=O)Nc3ccc4c(c3)OCO4)cc2o1 | > 100 µM (inactive) |  |
| COc1cccc(CNC(=O)CCNS(=O)(=O)c2ccc3[nH]c(=O)oc3c2)c1 | > 100 µM (inactive) |  |
| CC(C)(C)c1ccc(/C=N/NC(=O)c2cc(O)c(O)c(O)c2)cc1 | > 100 µM (inactive) |  |
| N#Cc1cccc(NC(=O)CNS(=O)(=O)c2ccc3[nH]c(=O)oc3c2)c1 | > 100 µM (inactive) |  |
| COc1ccc(NC(=O)CCNS(=O)(=O)c2ccc3c(c2)CCC3)cc1OC | > 100 µM (inactive) |  |
| COc1ccc(CNC(=O)CNS(=O)(=O)c2ccc3[nH]c(=O)oc3c2)c(OC)c1 | > 100 µM (inactive) |  |
